{
  "source": "ChEMBL document CHEMBL1201862",
  "about": "“PubChem BioAssay data set” (2004)",
  "test_in_all_cases": "growth of human tumour cells (NCI), 48 h",
  "key": {"NCI-H460": {"system": "NCI-H460"}, "MDA-MB-435": {"system": "MDA-MB-435"}, "K562": {"system": "K562"}, "MCF7": {"system": "MCF7"}, "HOP-92": {"system": "HOP-92"}, "HCT-15": {"system": "HCT-15"}, "NCI-H522": {"system": "NCI-H522"}, "UACC-62": {"system": "UACC-62"}, "UO-31": {"system": "UO-31"}, "SW-620": {"system": "SW-620"}, "Hs-578T": {"system": "Hs-578T"}, "OVCAR-5": {"system": "OVCAR-5"}, "NCI-H23": {"system": "NCI-H23"}, "U-251": {"system": "U-251"}, "CCRF-CEM": {"system": "CCRF-CEM"}, "MDA-N": {"system": "MDA-N"}, "DU-145": {"system": "DU-145"}, "SK-MEL-28": {"system": "SK-MEL-28"}, "SK-OV-3": {"system": "SK-OV-3"}, "HT-29": {"system": "HT-29"}, "BT-549": {"system": "BT-549"}, "A549": {"system": "A549"}, "NCI-H226": {"system": "NCI-H226"}, "PC-3": {"system": "PC-3"}, "MDA-MB-231": {"system": "MDA-MB-231"}, "SF-268": {"system": "SF-268"}, "SNB-19": {"system": "SNB-19"}, "OVCAR-3": {"system": "OVCAR-3"}, "LOX IMVI": {"system": "LOX IMVI"}, "HL-60": {"system": "HL-60"}, "SR": {"system": "SR"}, "EKVX": {"system": "EKVX"}, "HCT-116": {"system": "HCT-116"}, "HOP-62": {"system": "HOP-62"}, "SK-MEL-5": {"system": "SK-MEL-5"}, "COLO 205": {"system": "COLO 205"}, "OVCAR-8": {"system": "OVCAR-8"}, "MOLT-4": {"system": "MOLT-4"}, "CAKI-1": {"system": "CAKI-1"}, "RPMI-8226": {"system": "RPMI-8226"}, "UACC-257": {"system": "UACC-257"}, "KM12": {"system": "KM12"}, "OVCAR-4": {"system": "OVCAR-4"}, "SF-539": {"system": "SF-539"}, "SF-295": {"system": "SF-295"}, "ACHN": {"system": "ACHN"}, "TK-10": {"system": "TK-10"}, "SNB-75": {"system": "SNB-75"}, "M14": {"system": "M14"}, "786-0": {"system": "786-0"}, "HCC 2998": {"system": "HCC 2998"}, "SN12C": {"system": "SN12C"}, "IGROV-1": {"system": "IGROV-1"}, "T47D": {"system": "T47D"}, "A498": {"system": "A498"}, "NCI/ADR-RES": {"system": "NCI/ADR-RES"}, "SK-MEL-2": {"system": "SK-MEL-2"}},
  "note": "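1) Cells in 96-well plates. 2) Compound, 48 h, 5 concentrations. 3) Linear interpolation between surrounding doses. 4) Unreached endpoint = highest concentration. At the GI50, growth is halved.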 The source made the active and inactive calls. Rule as the data show it: active = GI50 up to about 1.1 µM and inactive = higher.",
  "data": [
    {"smiles": "COc1c2c(c3c(c1OC)c(=O)c1ccccc1n3C)OCO2", "values": [
      {"measurement": "GI50", "setting": "NCI-H460", "value": "36.1 µM (inactive)"},
      {"measurement": "GI50", "setting": "MDA-MB-435", "value": "> 100 µM (inactive)"},
      {"measurement": "GI50", "setting": "K562", "value": "81.5 µM (inactive)"},
      {"measurement": "GI50", "setting": "MCF7", "value": "> 100 µM (inactive)"},
      {"measurement": "GI50", "setting": "HOP-92", "value": "> 100 µM (inactive)"},
      {"measurement": "GI50", "setting": "HCT-15", "value": "> 100", "unit": "µM"},
      {"measurement": "GI50", "setting": "NCI-H522", "value": "> 100 µM (inactive)"},
      {"measurement": "GI50", "setting": "UACC-62", "value": "> 100 µM (inactive)"},
      {"measurement": "GI50", "setting": "UO-31", "value": "> 100 µM (inactive)"},
      {"measurement": "GI50", "setting": "SW-620", "value": "> 100 µM (inactive)"},
      {"measurement": "GI50", "setting": "Hs-578T", "value": "> 100 µM (inactive)"},
      {"measurement": "GI50", "setting": "OVCAR-5", "value": "> 100 µM (inactive)"},
      {"measurement": "GI50", "setting": "NCI-H23", "value": "> 100 µM (inactive)"},
      {"measurement": "GI50", "setting": "U-251", "value": "> 100 µM (inactive)"},
      {"measurement": "GI50", "setting": "CCRF-CEM", "value": "> 100 µM (inactive)"},
      {"measurement": "GI50", "setting": "MDA-N", "value": "> 100 µM (inactive)"},
      {"measurement": "GI50", "setting": "DU-145", "value": "> 100 µM (inactive)"},
      {"measurement": "GI50", "setting": "SK-MEL-28", "value": "> 100 µM (inactive)"},
      {"measurement": "GI50", "setting": "SK-OV-3", "value": "> 100 µM (inactive)"},
      {"measurement": "GI50", "setting": "HT-29", "value": "> 100 µM (inactive)"},
      {"measurement": "GI50", "setting": "BT-549", "value": "> 100 µM (inactive)"},
      {"measurement": "GI50", "setting": "A549", "value": "> 100 µM (inactive)"},
      {"measurement": "GI50", "setting": "NCI-H226", "value": "> 100 µM (inactive)"},
      {"measurement": "GI50", "setting": "PC-3", "value": "> 100 µM (inactive)"},
      {"measurement": "GI50", "setting": "MDA-MB-231", "value": "> 100 µM (inactive)"},
      {"measurement": "GI50", "setting": "SF-268", "value": "> 100 µM (inactive)"},
      {"measurement": "GI50", "setting": "SNB-19", "value": "> 100 µM (inactive)"},
      {"measurement": "GI50", "setting": "OVCAR-3", "value": "> 100 µM (inactive)"},
      {"measurement": "GI50", "setting": "LOX IMVI", "value": "> 100 µM (inactive)"},
      {"measurement": "GI50", "setting": "HL-60", "value": "> 100 µM (inactive)"},
      {"measurement": "GI50", "setting": "SR", "value": "> 100 µM (inactive)"},
      {"measurement": "GI50", "setting": "EKVX", "value": "45.2 µM (inactive)"},
      {"measurement": "GI50", "setting": "HCT-116", "value": "> 100 µM (inactive)"},
      {"measurement": "GI50", "setting": "HOP-62", "value": "> 100 µM (inactive)"},
      {"measurement": "GI50", "setting": "SK-MEL-5", "value": "> 100 µM (inactive)"},
      {"measurement": "GI50", "setting": "COLO 205", "value": "> 100 µM (inactive)"},
      {"measurement": "GI50", "setting": "OVCAR-8", "value": "> 100 µM (inactive)"},
      {"measurement": "GI50", "setting": "MOLT-4", "value": "> 100 µM (inactive)"},
      {"measurement": "GI50", "setting": "CAKI-1", "value": "> 100 µM (inactive)"},
      {"measurement": "GI50", "setting": "RPMI-8226", "value": "> 100 µM (inactive)"},
      {"measurement": "GI50", "setting": "UACC-257", "value": "> 100 µM (inactive)"},
      {"measurement": "GI50", "setting": "KM12", "value": "> 100 µM (inactive)"},
      {"measurement": "GI50", "setting": "OVCAR-4", "value": "76.2 µM (inactive)"},
      {"measurement": "GI50", "setting": "SF-539", "value": "> 100 µM (inactive)"},
      {"measurement": "GI50", "setting": "SF-295", "value": "> 100 µM (inactive)"},
      {"measurement": "GI50", "setting": "ACHN", "value": "> 100 µM (inactive)"},
      {"measurement": "GI50", "setting": "TK-10", "value": "> 100 µM (inactive)"},
      {"measurement": "GI50", "setting": "SNB-75", "value": "> 100 µM (inactive)"},
      {"measurement": "GI50", "setting": "M14", "value": "> 100 µM (inactive)"},
      {"measurement": "GI50", "setting": "786-0", "value": "> 100 µM (inactive)"},
      {"measurement": "GI50", "setting": "HCC 2998", "value": "> 100 µM (inactive)"},
      {"measurement": "GI50", "setting": "SN12C", "value": "> 100 µM (inactive)"},
      {"measurement": "GI50", "setting": "IGROV-1", "value": "> 100 µM (inactive)"},
      {"measurement": "GI50", "setting": "T47D", "value": "> 100 µM (inactive)"},
      {"measurement": "GI50", "setting": "A498", "value": "> 100 µM (inactive)"},
      {"measurement": "GI50", "setting": "NCI/ADR-RES", "value": "> 100 µM (inactive)"},
      {"measurement": "GI50", "setting": "SK-MEL-2", "value": "> 100 µM (inactive)"}
    ]}
  ]
}
